{"source": "patent US6111069A", "about": "“Polypeptides that include conformation-constraining groups which flank a protein-protein interaction site” (Virginia Commonwealth University, priority 1997, dated 2000)", "key": {"[1]": {"assay": "Preliminary studies of hypotensive peptide versus diltiazem (diastolic pressure, arrhythmia)", "format": "in vivo, rat", "protocol": "60 to 120 μg per rat (5 to 10 μM)."}, "[2]": {"system": "receptors of sweet tasting papillae", "details": "comparison value; cited from earlier work"}}, "note": "Where a SMILES comes first, the peptide text is derived from it."}
{"smiles": "CSCC[C@H](NC(=O)[C@H](C)NC(=O)[C@@H](NC(=O)[C@@H]1CCCN1C(=O)[C@H](C)N)[C@@H](C)O)C(=O)N[C@@H](Cc1c[nH]c2ccccc12)C(=O)N1CCC[C@H]1C(=O)N[C@@H](C)C(=O)O", "note": "[HP-1, Ala-Pro-Thr-Ala-Met-Trp-Pro-Ala] (H-APTAMWPA-OH)", "values": [{"measurement": "Effect on diastolic pressure", "setting": "[1]", "value": "does not increase diastolic pressure"}]}
{"smiles": "COC(=O)[C@H](Cc1ccccc1)NC(=O)[C@@H](N)CC(=O)O", "note": "[aspartame] (H-Asp-Phe-OMe)", "values": [{"measurement": "Sweetness relative to sugar", "setting": "[2]", "value": 160, "unit": "times sweeter than sugar"}]}
